Assay results published in US20120189558A1, “ANTI-BACTERIAL COMPOSITIONS COMPRISING EXTRACTS OF EREMOPHILA LONGIFOLIA AND METHODS FOR USE OF SAME” (priority 2009, published 2012).
Converted amounts (≈) assume the structure as drawn. Values belong to the compound of their own block, whether it stands above or below them.

Key:
S. sobrinus (6715-247) = experiment: Plate-hole and disk diffusion assays; type: cell-based, Streptococcus sobrinus; settings: 2 mg/ml positive control, mean +/- SD of three plate-hole and three disk diffusion assays
Description: (§1) Plate-hole diffusion assays were used to test for antibacterial activity (Palombo and Semple, 2001). A pure colony of each culture was grown in BHI broth and 200 μL were added to 15 ml of molten BHI agar. The inoculated agar was gently mixed and transferred to a sterile petri dish. Once set and dried, a sterilised core-borer (6 mm diameter) was used to make wells in the agar, and 10 μL of plant extract were added into each well. One well on each plate was filled with neat solvent as a control. Disk diffusion assays were also used to test for antibacterial activity (Pennacchio et al., 2005). 10 μL of each extract and control were placed on sterile paper disks (6 mm diameter, Oxoid) and allowed to dry for 25 minutes. 100 μL of each overnight (ON) culture was spread on BHI agar and allowed to dry for 10 minutes. Disks were transferred to the agar surface. Both plate-hole and disk diffusion assays were incubated overnight at 37° C. in candle jars and were carried out in triplicate.

[1] = system: salivary bacteria biofilm; experiment: Salivary bacteria artificial biofilm assay; type: cell-based, human; settings: 5 mg/ml, 1 hour treatment
Description: (§2) Artificial biofilm assays were performed based on the method of Alviano et al. (2008). Non-stimulated saliva was collected from a healthy donor and 20 μL was placed on sterile 0.22 μm Millipore membrane disks of 13 mm diameter, previously placed over BHI agar plates. Plates were incubated for 48 hours at 37° C. After biofilm growth, the disks were collected and each disk was placed inside a bottle containing 3 ml of stem extract (5 mg/ml or 10 mg/ml in ethanol), Milli-Q distilled water or ethanol for 1 hour at 37° C. with gentle shaking. Then, the disks were briefly washed with Milli-Q distilled water to remove the plant extract and unbound bacterial cells, and the biofilm was extracted by vortexing the disks in 1 ml of BHI broth. Immediately, serial dilutions were performed and 100 μL of each dilution were spread on BHI agar. The plates were incubated in candle jars for 48 hours at 37° C. and a viable count was performed. An S. mutans artificial biofilm assay was performed by repeating the above method except that a pure ON culture of S. mutans was grown on the membrane disks instead of salivary bacteria. Both this assay and the salivary assay were performed in duplicate.

[2] = system: Streptococcus mutans (969); experiment: Plate-hole and disk diffusion assays; type: cell-based; settings: S. mutans, 2 mg/ml positive control, mean +/- SD of three plate-hole and three disk diffusion assays
Description: as §1

S. mutans biofilm = experiment: S. mutans artificial biofilm assay; type: cell-based, Streptococcus mutans; settings: 5 mg/ml, 1 hour treatment
Description: as §2

[3] = system: Staphylococcus aureus ATCC 29213 - antibiotic-susceptible type strain; experiment: MIC by CLSI microbroth dilution; type: cell-based; settings: ATCC29213, isolate GP1
Description: (§3) A study was carried out to determine the minimum inhibitory concentration (MIC) for Emubush extract and a comparator against a panel of isolates using Clinical and Laboratory Standards Institute (CLSI) broth methodology.
(§4) The Emubush extract was prepared by dissolving 95.2 mg in ethanol. The solvent was then evaporated off and the material re-dissolved in ethanol at room temperature.
(§5) MIC was determined by microbroth dilution following CLSI methodology. [CLSI Methods for Dilution Antimicrobial Susceptibility Tests for Bacteria That Grow Aerobically; Approved Standard-Eighth Edition. CLSI Document M07-A8. CLSI, Wayne, Pa. 19087-1898, USA, 2009].

[4] = system: Pseudomonas aeruginosa - multi-drug resistant clinical isolate; experiment: MIC by CLSI microbroth dilution; type: cell-based; settings: isolate GN11
Description: as §3, §4, §5

[5] = system: Burkholderia cepacia - antibiotic-susceptible clinical isolate; experiment: MIC by CLSI microbroth dilution; type: cell-based; settings: isolate GN14
Description: as §3, §4, §5

[6] = system: Staphylococcus epidermidis - antibiotic susceptible clinical isolate; experiment: MIC by CLSI microbroth dilution; type: cell-based; settings: isolate GP7
Description: as §3, §4, §5

[7] = system: Serratia marcescens - multi-drug resistant clinical isolate; experiment: MIC by CLSI microbroth dilution; type: cell-based; settings: isolate GN09
Description: as §3, §4, §5

[8] = system: Serratia marcescens - antibiotic-susceptible clinical isolate; experiment: MIC by CLSI microbroth dilution; type: cell-based; settings: isolate GN08
Description: as §3, §4, §5

[9] = system: Staphylococcus aureus - methicillin-resistant clinical isolate; experiment: MIC by CLSI microbroth dilution; type: cell-based; settings: isolate GP4
Description: as §3, §4, §5

[10] = system: Stenotrophomonas maltophilia - antibiotic-susceptible clinical isolate; experiment: MIC by CLSI microbroth dilution; type: cell-based; settings: isolate GN12
Description: as §3, §4, §5

[11] = system: Staphylococcus aureus ATCC 43300 - methicillin-resistant type strain; experiment: MIC by CLSI microbroth dilution; type: cell-based; settings: ATCC43300, isolate GP3
Description: as §3, §4, §5

[12] = system: Staphylococcus epidermidis - methicillin-resistant clinical isolate; experiment: MIC by CLSI microbroth dilution; type: cell-based; settings: isolate GP8
Description: as §3, §4, §5

[13] = system: Streptococcus pyogenes - antibiotic-susceptible clinical isolate; experiment: MIC by CLSI microbroth dilution; type: cell-based; settings: isolate GP59
Description: as §3, §4, §5

[14] = system: Streptococcus pneumoniae - multi-drug resistant clinical isolate; experiment: MIC by CLSI microbroth dilution; type: cell-based; settings: isolate GP24
Description: as §3, §4, §5

[15] = system: Stenotrophomonas maltophila - antibiotic-resistant clinical isolate; experiment: MIC by CLSI microbroth dilution; type: cell-based, Stenotrophomonas maltophilia; settings: Stenotrophomonas sp. LMG 10879; isolate GN13
Description: as §3, §4, §5

[16] = system: a selection of Streptococcus species; settings: isolated active compound; Hu et al., 2000; cited from earlier work

Compound: [H]/N=C(\N/C(=N/[H])NCCCCCCNC(=N)NC(=N)Nc1ccc(Cl)cc1)Nc1ccc(Cl)cc1 [Chlorhexidine, chlorhexidine]
mean diameter of the growth inhibition zone (S. sobrinus (6715-247)): 20.5 +/− 0.6 mm
mean diameter of the growth inhibition zone (S. sobrinus (6715-247); listed as chlorhexidine): 20.5+/−0.6 mm
reduction in viable biofilm cells [1]: greatest reduction in viable biofilm bacteria
mean diameter of the growth inhibition zone [2]: 22.1 +/− 0.6 mm
mean diameter of the growth inhibition zone ([2]; listed as chlorhexidine): 22.1+/−0.6 mm
reduction in viable biofilm cells (S. mutans biofilm): greatest reduction in viable biofilm bacteria

MIC [3]: 0.25 mg/L (≈ 0.692 µM)
MIC [4]: 4 mg/L (≈ 11.1 µM)
MIC [5]: 1 mg/L (≈ 2.77 µM)
MIC [6]: 0.12 mg/L (≈ 0.332 µM)
MIC [7]: 2 mg/L (≈ 5.53 µM)
MIC [8]: 0.06 mg/L (≈ 0.166 µM)
MIC [9]: 0.12 mg/L (≈ 0.332 µM)
MIC [10]: 0.12 mg/L (≈ 0.332 µM)
MIC [11]: 0.12 mg/L (≈ 0.332 µM)
MIC [12]: 0.12 mg/L (≈ 0.332 µM)
MIC [13]: 0.5 mg/L (≈ 1.38 µM)
MIC [14]: 1 mg/L (≈ 2.77 µM)
MIC [15]: 2 mg/L (≈ 5.53 µM)
Compound: C[C@H]1COc2c(N3CCN(C)CC3)c(F)cc3c(=O)c(C(=O)O)cn1c23 [Levofloxacin]

Compound: COc1ccc2cc3[n+](cc2c1OC)CCc1cc2c(cc1-3)OCO2 [berberine]
MIC [16]: 13 to 20 mg/L
